Measurements from the supplement of paper PMC10883282.

Assays:
Test in all cases: standardised AUC of viability dose-response curve (72 h) (fraction (0-1)); higher = less growth inhibition (more resistant)
SK-LMS-1 = test system: SK-LMS-1
Method in brief: (§1)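 Sarcoma cell lines in 384-well plates were treated in triplicate for 72 h with 2.5 µl of compound dilution series (compound-plate series 10 mM to 0.0002 mM, 1:3 steps). ATPLite viability was scaled 1 (full) to 0 (none) and fitted per drug and cell line with a four-parameter log-logistic model. The standardised area under the dose-response curve in log-dose space (modified drexplorer computeAUC) runs from 1 (no response) to 0 (full response).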

SK-ES-1 = test system: SK-ES-1
Method in brief: as §1

SW684 = test system: SW684
Method in brief: as §1

RD-ES = test system: RD-ES
Method in brief: as §1

SW982 = test system: SW982
Method in brief: as §1

HT1080 = test system: HT1080
Method in brief: as §1

SW1353 = test system: SW1353
Method in brief: as §1

KHOS-240S = test system: KHOS-240S
Method in brief: as §1

VA-ES-BJ = test system: VA-ES-BJ
Method in brief: as §1

SYO-1 = test system: SYO-1
Method in brief: as §1

MES-SA = test system: MES-SA
Method in brief: as §1

G401 = test system: G401
Method in brief: as §1

HS729 = test system: HS729
Method in brief: as §1

SW872 = test system: SW872
Method in brief: as §1

KHOS-NP = test system: KHOS-NP
Method in brief: as §1

RD = test system: RD
Method in brief: as §1

A204 = test system: A204
Method in brief: as §1

| Structure (SMILES) | standardised AUC (SK-LMS-1) | standardised AUC (SK-ES-1) | standardised AUC (SW684) | standardised AUC (RD-ES) | standardised AUC (SW982) | standardised AUC (HT1080) | standardised AUC (SW1353) | standardised AUC (KHOS-240S) | standardised AUC (VA-ES-BJ) | standardised AUC (SYO-1) | standardised AUC (MES-SA) | standardised AUC (G401) | standardised AUC (HS729) | standardised AUC (SW872) | standardised AUC (KHOS-NP) | standardised AUC (RD) | standardised AUC (A204) |
| --- | --- | --- | --- | --- | --- | --- | --- | --- | --- | --- | --- | --- | --- | --- | --- | --- | --- |
| CN(C)C/C=C/C(=O)Nc1cc2c(Nc3ccc(F)c(Cl)c3)ncnc2cc1O[C@H]1CCOC1 [AFATINIB] | 0.837 | 0.745 | 0.85 | 0.823 | 0.759 | 0.926 | 0.729 | 0.846 | 0.825 | 0.795 | 0.807 | 0.838 | 0.849 | 0.819 | 0.939 | 0.801 | 0.733 |
| Cc1cc2c(F)c(Oc3ncnn4cc(OC[C@@H](C)OC(=O)[C@H](C)N)c(C)c34)ccc2[nH]1 [BRIVANIB ALANINATE] | 0.941 | 0.986 | 0.989 | 0.996 | 1 | 0.979 | 0.995 | 0.974 | 0.994 | 0.943 | 0.964 | 0.991 | 0.977 | 1 | 0.966 | 0.987 | 0.967 |
| CCS(=O)(=O)N1CC(CC#N)(n2cc(-c3ncnc4[nH]ccc34)cn2)C1 [BARICITINIB] | 0.985 | 1 | 0.99 | 1 | 0.99 | 0.989 | 0.987 | 0.981 | 0.997 | 0.985 | 0.972 | 0.995 | 0.977 | 0.992 | 0.986 | 1 | 0.962 |
| CO[C@H]1C[C@@H]2CC[C@@H](C)[C@@](O)(O2)C(=O)C(=O)N2CCCC[C@H]2C(=O)O[C@H]([C@H](C)C[C@@H]2CC[C@@H](OC(=O)C(C)(CO)CO)[C@H](OC)C2)CC(=O)[C@H](C)/C=C(\C)[C@@H](O)[C@@H](OC)C(=O)[C@H](C)C[C@H](C)/C=C/C=C/C=C/1C [TEMSIROLIMUS] | 0.64 | 0.647 | 0.933 | 0.754 | 0.743 | 0.94 | 0.883 | 0.854 | 0.588 | 0.81 | 0.511 | 0.763 | 0.887 | 0.741 | 0.934 | 0.731 | 0.592 |
| Cc1c2oc3c(C)ccc(C(=O)N[C@@H]4C(=O)N[C@H](C(C)C)C(=O)N5CCC[C@H]5C(=O)N(C)CC(=O)N(C)[C@@H](C(C)C)C(=O)O[C@@H]4C)c3nc-2c(C(=O)N[C@@H]2C(=O)N[C@H](C(C)C)C(=O)N3CCC[C@H]3C(=O)N(C)CC(=O)N(C)[C@@H](C(C)C)C(=O)O[C@@H]2C)c(N)c1=O [DACTINOMYCIN] | 0.566 | 0.272 | 0.778 | 0.418 | 0.396 | 0.464 | 0.492 | 0.408 | 0.453 | 0.444 | 0.258 | 0.348 | 0.504 | 0.56 | 0.451 | 0.432 | 0.365 |
| Cc1[nH]c(/C=C2\C(=O)Nc3ccccc32)c(C)c1CCC(=O)O [ORANTINIB] | 0.976 | 0.977 | 0.966 | 0.985 | 0.966 | 0.971 | 0.964 | 0.993 | 0.967 | 0.976 | 0.958 | 0.977 | 0.934 | 0.975 | 0.99 | 0.994 | 0.963 |
| Cc1cc(F)c(C(=O)Nc2cccc(-c3nncn3C(C)C)n2)cc1-n1cnc(C2CC2)c1 [SELONSERTIB] | 0.988 | 0.953 | 0.981 | 0.985 | 1 | 1 | 0.999 | 0.977 | 0.976 | 0.957 | 0.959 | 0.969 | 0.992 | 1 | 0.962 | 0.995 | 0.94 |
| CNC(=O)c1c(C)oc2cc(Oc3ncnc4cc(OC)c(OC)cc34)ccc12 [FRUQUINTINIB] | 0.96 | 0.968 | 0.979 | 0.984 | 0.986 | 0.968 | 0.932 | 0.937 | 0.964 | 0.79 | 0.97 | 0.934 | 0.856 | 0.925 | 0.975 | 0.993 | 0.787 |
| CCOc1cc2ncc(C#N)c(Nc3ccc(OCc4ccccn4)c(Cl)c3)c2cc1NC(=O)/C=C/CN(C)C [NERATINIB] | 0.847 | 0.693 | 0.901 | 0.822 | 0.717 | 0.877 | 0.753 | 0.873 | 0.83 | 0.818 | 0.745 | 0.851 | 0.872 | 0.817 | 0.889 | 0.775 | 0.755 |
| CN(C)C(=O)c1cc2cnc(Nc3ccc(N4CCNCC4)cn3)nc2n1C1CCCC1 [RIBOCICLIB] | 0.963 | 0.816 | 0.984 | 0.865 | 0.952 | 0.993 | 0.939 | 0.961 | 0.903 | 0.86 | 0.94 | 0.917 | 0.987 | 0.95 | 0.997 | 0.946 | 0.909 |
| O=C(/C=C\n1cnc(-c2cc(C(F)(F)F)cc(C(F)(F)F)c2)n1)NNc1cnccn1 [SELINEXOR] | 0.642 | 0.5 | 0.847 | 0.751 | 0.649 | 0.714 | 0.822 | 0.612 | 0.625 | 0.596 | 0.652 | 0.706 | 0.773 | 0.781 | 0.655 | 0.721 | 0.672 |
| CC(=O)c1c(C)c2cnc(Nc3ccc(N4CCNCC4)cn3)nc2n(C2CCCC2)c1=O [PALBOCICLIB] | 0.967 | 0.721 | 0.928 | 0.792 | 0.789 | 0.96 | 0.922 | 0.863 | 0.78 | 0.772 | 0.808 | 0.903 | 0.949 | 0.887 | 0.96 | 0.946 | 0.806 |
| COc1cc(Nc2ncc3c(n2)-c2ccc(Cl)cc2C(c2c(F)cccc2OC)=NC3)ccc1C(=O)O [ALISERTIB] | 0.865 | 0.558 | 0.902 | 0.656 | 0.734 | 0.873 | 0.933 | 0.835 | 0.808 | 0.732 | 0.678 | 0.811 | 0.889 | 0.895 | 0.95 | 0.801 | 0.876 |
| COc1cc2ncnc(Nc3ccc(F)c(Cl)c3)c2cc1OCCCN1CCOCC1 [GEFITINIB] | 0.942 | 0.904 | 0.988 | 0.961 | 0.927 | 0.983 | 0.955 | 0.962 | 0.989 | 0.945 | 0.948 | 0.963 | 0.963 | 0.959 | 0.994 | 0.973 | 0.948 |
| COc1cc(N2CCC(N3CCN(C)CC3)CC2)ccc1Nc1ncc(Cl)c(Nc2ccccc2P(C)(C)=O)n1 [BRIGATINIB] | 0.883 | 0.713 | 0.904 | 0.7 | 0.649 | 0.907 | 0.77 | 0.766 | 0.763 | 0.681 | 0.908 | 0.816 | 0.728 | 0.778 | 0.889 | 0.694 | 0.833 |
